Reference: PubChem BioAssay (NCI)
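Five concentrations, 48 hours, 96-well plates. Abbreviation: GI50, concentration required for 50% inhibition of growth. The concentration for full growth arrest is given as TGI.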 Calls of active or inactive are those of the source. Cut-off read from the data, not from the text of the source: active = GI50 below about 0.43 µM; inactive = the rest.

Experiments:
Assay in all cases: inhibition of tumour cell growth, NCI panel, 48 h
[1] = system: 786-0 renal
[2] = system: A498 renal
[3] = system: A549 NSCLC
[4] = system: ACHN renal
[5] = system: CAKI-1 renal
[6] = system: CCRF-CEM leukemia
[7] = system: COLO 205 colon
[8] = system: DU-145 prostate
[9] = system: EKVX NSCLC
[10] = system: HCC-2998 colon
[11] = system: HCT-116 colon
[12] = system: HCT-15 colon
[13] = system: HL-60(TB) leukemia
[14] = system: HOP-62 NSCLC
[15] = system: HOP-92 NSCLC
[16] = system: HS 578T breast
[17] = system: HT29 colon
[18] = system: IGROV1 ovarian
[19] = system: K-562 leukemia
[20] = system: KM12 colon
[21] = system: LOX IMVI melanoma
[22] = system: M14 melanoma
[23] = system: MALME-3M melanoma
[24] = system: MCF7 breast
[25] = system: MDA-MB-231 breast
[26] = system: MDA-MB-435
[27] = system: MDA-N
[28] = system: NCI-H226 lung
[29] = system: NCI-H23 lung
[30] = system: NCI-H460 lung
[31] = system: NCI-H522 lung
[32] = system: NCI/ADR-RES ovarian
[33] = system: OVCAR-3 ovarian
[34] = system: OVCAR-4 ovarian
[35] = system: OVCAR-5 ovarian
[36] = system: OVCAR-8 ovarian
[37] = system: PC-3 prostate
[38] = system: RXF 393 renal
[39] = system: SF-268 CNS
[40] = system: SF-295 CNS
[41] = system: SF-539 CNS
[42] = system: SK-MEL-2 melanoma
[43] = system: SK-MEL-28 melanoma
[44] = system: SK-MEL-5 melanoma
[45] = system: SK-OV-3 ovarian
[46] = system: SN12C renal
[47] = system: SNB-19 CNS
[48] = system: SNB-75 CNS
[49] = system: SW-620 colon
[50] = system: T-47D breast
[51] = system: U251 CNS
[52] = system: UACC-257 melanoma
[53] = system: UACC-62 melanoma
[54] = system: UO-31 renal
[55] = system: MOLT-4 leukemia
[56] = system: RPMI-8226 leukemia
[57] = system: SR leukemia
[58] = system: TK-10 renal

Cc1ccc(/C=C2\CN(C)CC3=C2NC(=S)NC3c2ccc(C)cc2)cc1 (configuration not stated) gave a TGI [1] of 77.8 µM, a TGI [2] greater than 100 µM and a TGI [3] greater than 100 µM. The TGI [4] was greater than 100 µM, the TGI [5] was greater than 100 µM and the TGI [6] was 82.4 µM. It also gave a TGI [7] of 46 µM, a TGI [8] greater than 100 µM and a TGI [9] greater than 100 µM. The TGI [10] was 78.9 µM, the TGI [11] was 60.1 µM and the TGI [12] was greater than 100 µM. It also gave a TGI [13] of 61.4 µM, a TGI [14] greater than 100 µM and a TGI [15] of 82.8 µM. The TGI [16] was greater than 100 µM, the TGI [17] was 80.4 µM and the TGI [18] was greater than 100 µM. It also gave a TGI [19] of 56.9 µM, a TGI [20] of 39 µM and a TGI [21] greater than 100 µM. It also gave a TGI [22] greater than 100 µM, a TGI [23] greater than 100 µM and a TGI [24] of 72.3 µM. The TGI [25] was greater than 100 µM, the TGI [26] was 28.1 µM and the TGI [27] was 36.7 µM. It also gave a TGI [28] greater than 100 µM, a TGI [29] greater than 100 µM and a TGI [30] greater than 100 µM. For the same compound, the TGI [31] was greater than 100 µM, the TGI [32] was 68 µM and the TGI [33] was 62.5 µM. For the same compound, the TGI [34] was 67.1 µM, the TGI [35] was greater than 100 µM and the TGI [36] was greater than 100 µM. The TGI [37] was greater than 100 µM, the TGI [38] was greater than 100 µM and the TGI [39] was greater than 100 µM. The TGI [40] was greater than 100 µM, the TGI [41] was greater than 100 µM and the TGI [42] was greater than 100 µM. For the same compound, the TGI [43] was greater than 100 µM, the TGI [44] was greater than 100 µM and the TGI [45] was greater than 100 µM. It also gave a TGI [46] greater than 100 µM, a TGI [47] greater than 100 µM and a TGI [48] of 68 µM. The TGI [49] was greater than 100 µM, the TGI [50] was greater than 100 µM and the TGI [51] was greater than 100 µM. For the same compound, the TGI [52] was 62 µM, the TGI [53] was greater than 100 µM and the TGI [54] was greater than 100 µM.

For Cc1nc(Nc2ccc(Cl)cc2Cl)sc1C(=O)Nc1ccccc1, the TGI [1] was greater than 100 µM, the TGI [2] was greater than 100 µM and the TGI [3] was greater than 100 µM. It also gave a TGI [4] greater than 100 µM, a TGI [5] greater than 100 µM and a TGI [6] greater than 100 µM. For the same compound, the TGI [7] was greater than 100 µM, the TGI [8] was greater than 100 µM and the TGI [9] was greater than 100 µM. It also gave a TGI [10] greater than 100 µM, a TGI [11] greater than 100 µM and a TGI [12] greater than 100 µM. The TGI [14] was greater than 100 µM, the TGI [15] was greater than 100 µM and the TGI [16] was greater than 100 µM. For the same compound, the TGI [17] was greater than 100 µM, the TGI [18] was greater than 100 µM and the TGI [19] was greater than 100 µM. The TGI [20] was greater than 100 µM, the TGI [21] was greater than 100 µM and the TGI [22] was greater than 100 µM. It also gave a TGI [23] greater than 100 µM, a TGI [24] greater than 100 µM and a TGI [25] greater than 100 µM. It also gave a TGI [26] greater than 100 µM, a TGI [27] greater than 100 µM and a TGI [55] greater than 100 µM. For the same compound, the TGI [28] was 17.4 µM, the TGI [29] was greater than 100 µM and the TGI [30] was greater than 100 µM. It also gave a TGI [31] greater than 100 µM, a TGI [32] greater than 100 µM and a TGI [33] greater than 100 µM. It also gave a TGI [34] greater than 100 µM, a TGI [35] greater than 100 µM and a TGI [36] greater than 100 µM. The TGI [37] was greater than 100 µM, the TGI [56] was greater than 100 µM and the TGI [38] was greater than 100 µM. It also gave a TGI [39] greater than 100 µM, a TGI [40] greater than 100 µM and a TGI [41] greater than 100 µM. It also gave a TGI [42] greater than 100 µM, a TGI [43] greater than 100 µM and a TGI [44] greater than 100 µM. It also gave a TGI [45] greater than 100 µM, a TGI [46] greater than 100 µM and a TGI [47] greater than 100 µM. It also gave a TGI [48] greater than 100 µM, a TGI [57] greater than 100 µM and a TGI [49] greater than 100 µM. The TGI [50] was greater than 100 µM, the TGI [58] was greater than 100 µM and the TGI [51] was greater than 100 µM. The TGI [52] was greater than 100 µM, the TGI [53] was greater than 100 µM and the TGI [54] was greater than 100 µM.

O=C(O)CN1CCN(CC(=O)O)CCN(CC(=O)O)CC1 was tested, and the outcome [1] was “inactive”, the TGI [2] was greater than 75.8 µM and the outcome [2] was “inactive”. The GI50 [3] was 3550 µM, the TGI [3] was greater than 25.4 µM and the outcome [4] was “inactive”. For the same compound, the TGI [6] was greater than 59 µM, the outcome [6] was “inactive” and the GI50 [7] was 4770 µM. The TGI [7] was 9.69 µM, the outcome [8] was “inactive” and the outcome [9] was “inactive”. For the same compound, the GI50 [11] was 6750 µM, the GI50 [12] was 9440 µM and the TGI [13] was 4.74 µM. The outcome [14] was “inactive”, the outcome [15] was “inactive” and the outcome [16] was “inactive”. The GI50 [17] was 4400 µM, the GI50 [18] was 7100 µM and the TGI [19] was greater than 21.9 µM. For the same compound, the GI50 [20] was 5450 µM, the outcome [21] was “inactive” and the GI50 [22] was 10500 µM. For the same compound, the outcome [23] was “inactive”, the GI50 [24] was 6360 µM and the outcome [25] was “inactive”. The outcome [26] was “inactive”, the GI50 [27] was 18500 µM and the outcome [55] was “inactive”. For the same compound, the outcome [28] was “inactive”, the GI50 [29] was 76100 µM and the GI50 [30] was 4560 µM. The GI50 [31] was 8060 µM, the TGI [31] was greater than 70.8 µM and the TGI [32] was greater than 30.9 µM. The outcome [32] was “inactive”, the outcome [34] was “inactive” and the outcome [35] was “inactive”. For the same compound, the GI50 [36] was 22300 µM, the TGI [36] was greater than 24.1 µM and the GI50 [37] was 9040 µM. The GI50 [38] was 9940 µM, the outcome [39] was “inactive” and the outcome [40] was “inactive”. For the same compound, the outcome [41] was “inactive”, the GI50 [42] was 16700 µM and the outcome [43] was “inactive”. The GI50 [44] was 6790 µM, the TGI [44] was greater than 23.2 µM and the outcome [45] was “inactive”. The outcome [46] was “inactive”, the outcome [47] was “inactive” and the outcome [48] was “inactive”. For the same compound, the outcome [49] was “inactive”, the outcome [50] was “inactive” and the GI50 [58] was 33100 µM. For the same compound, the outcome [51] was “inactive”, the GI50 [52] was 71500 µM and the GI50 [53] was 8700 µM. For the same compound, the outcome [54] was “inactive”.

In the case of CC(C)C(O)(C(=O)OCN1C(=O)C2C3C=CC(C2C1=O)C1C2C(=O)N(COC(=O)C(O)(C(C)C)C(C)O)C(=O)C2C31)C(C)O (configuration not stated), the TGI [1] is reported as greater than 100 µM, the TGI [2] is reported as greater than 100 µM and the TGI [3] is reported as greater than 100 µM. The TGI [4] was greater than 100 µM, the TGI [5] was greater than 100 µM and the TGI [6] was greater than 100 µM. The TGI [7] was greater than 100 µM, the TGI [8] was greater than 100 µM and the TGI [9] was greater than 100 µM. The TGI [10] was greater than 100 µM, the TGI [11] was greater than 100 µM and the TGI [12] was greater than 100 µM. The TGI [13] was greater than 100 µM, the TGI [14] was greater than 100 µM and the TGI [16] was greater than 100 µM. For the same compound, the TGI [17] was greater than 100 µM, the TGI [18] was greater than 100 µM and the TGI [19] was greater than 100 µM. It also gave a TGI [20] greater than 100 µM, a TGI [22] greater than 100 µM and a TGI [23] greater than 100 µM. The TGI [24] was greater than 100 µM, the TGI [25] was greater than 100 µM and the TGI [26] was greater than 100 µM. The TGI [27] was greater than 100 µM, the TGI [55] was greater than 100 µM and the TGI [28] was greater than 100 µM. For the same compound, the TGI [29] was greater than 100 µM, the TGI [30] was greater than 100 µM and the TGI [31] was greater than 100 µM. It also gave a TGI [32] greater than 100 µM, a TGI [33] greater than 100 µM and a TGI [34] greater than 100 µM. It also gave a TGI [35] greater than 100 µM, a TGI [36] greater than 100 µM and a TGI [37] greater than 100 µM. For the same compound, the TGI [56] was greater than 100 µM, the TGI [38] was greater than 100 µM and the TGI [39] was greater than 100 µM. The TGI [40] was greater than 100 µM, the TGI [41] was greater than 100 µM and the TGI [42] was greater than 100 µM. For the same compound, the TGI [43] was greater than 100 µM, the TGI [44] was greater than 100 µM and the TGI [45] was greater than 100 µM. The TGI [46] was greater than 100 µM, the TGI [47] was greater than 100 µM and the TGI [48] was greater than 100 µM. For the same compound, the TGI [57] was greater than 100 µM, the TGI [49] was greater than 100 µM and the TGI [50] was greater than 100 µM. It also gave a TGI [58] greater than 100 µM, a TGI [51] greater than 100 µM and a TGI [53] greater than 100 µM. For the same compound, the TGI [54] was greater than 100 µM.
